Measurements from PMC9118553, “In Vivo Bioconcentration of 10 Anionic Surfactants in Rainbow Trout Explained by In Vitro Data on Partitioning and S9 Clearance” (Environmental Science & Technology, 2022).

Columns and labels:
[1] = ref REACH dossier; cited from earlier work
[2] = set-up: method as in REACH dossier; conditions: method as noted in the cell (shake flask, solubility ratio, HPLC, BCFBAF, pH); ref REACH dossier; cited from earlier work
Danio rerio = conditions: in vivo, pH 7.6; cited from earlier work
carp = test system: carp; set-up: method as in REACH dossier; conditions: carp 28d pH7; ref REACH dossier; cited from earlier work
rainbow trout = conditions: rainbow trout, similar water hardness; cited from earlier work
[3] = marked * = measured; used for IVIVE; same values as Table 3; cited from earlier work
[4] = RT-S9 substrate depletion assay, mixture of 9 anionic surfactants (AnionMixture); conditions: tested in a mixture
Protocol: (§1) An established RT-S9 substrate depletion assay was employed,[25]−[27] predating the currently available OECD guideline 319B.[28] A single batch of the characterized liver homogenate material was prepared at the US EPA lab in Duluth and shipped on dry ice to the testing facilities at the University of Amsterdam. The test was conducted using the same method applied for a series of cationic surfactants in Droge et al.[29] and is summarized together with the in vitro–in vivo extrapolation in Text S4.
(§2) Text S4: Trout liver S9 parent depletion assay details and IVIVE
(§3) Liver tissue was separately pooled from the same five rainbow trout (three males/two females, ~300 g, liver weight ~3 g) used also for the RT-S9 study on a series of cationic surfactants (Droge et al., 2021b). The liver sample was homogenized in an appropriate buffer and then centrifuged to yield a 13,000 x g supernatant (the ‘S9 fraction’, lacking only mitochondrial fractions). No further refinement towards microsomal fractions was made to remove cytosolic and lysosomal components.
(§4) Upon arrival at the University of Amsterdam the liver
(§5) S9 material was stored in a -80 °C freezer until use.
(§6) Individual chemicals were first dissolved in methanol and then further diluted to 20% methanol in 100 mM phosphate buffer to make a ~20 µM stock solution, which was then spiked as 10 µL in 190 µL of active S9 mixture. The active S9 mixture consisted of 100 mM potassium phosphate-buffered saline (PPBS) adjusted to pH 7.8, 2 mM β-NADPH, 2 mM UDPGA, 0.1 mM PAPS, 5 mM GSH, 10 μg/mL alamethicin (in methanol carrier; 0.1% v/v final concentration), and 2 mg/mL S9 protein. The substrate depletion assays were performed using the multiple vial method described in OECD TG 319B, employing two or three separately spiked series.
(§7) Reactions were performed at 11 °C in a temperature-controlled water bath (B. Braun Frigomix-R) that was placed on a 2 cm travel path shaker (Gerhardt LS 10) set at 45 rpm. As a positive […]
(§8) alkylsulfonates, no additional assays with inactivated RT-S9 were performed.
(§9) Reactions were quenched with 600 µL ice-cold acetonitrile. After 10 s vortexing and 5 min centrifugation (Hermle Z300, 2500 rpm), 100 µL clear supernatant was transferred into 300 µL glass inserts placed in new autosampler vials, and mixed with 100 µL pure water. Concentrations were measured using a Prominence UFLC-XR system (Shimadzu) coupled to a tandem mass spectrometer (QTRAP 4000, Applied Biosystems) with a Turbo Ion spray source operated at 400 ◦C. For chromatographic separations, a 100 x 2.1mm x 2.7 µm Supelco Ascentis Express column was used (40 °C), with eluent A: pure water with 2 mM ammonium acetate, and eluent […]
(§10) prepared in 50% acetonitrile/water, calibration curves used covered at least four points in a log-linear range. The lowest external standard to fit the log-linear calibration curve served as limit of quantification, requiring a peak of at least 10x the average noise.
(§11) Each vial was treated as an independent vial with recorded exposure time. Log-transformed concentration data of the parent compound were plotted against exposure time (min) and analysed using Graphpad PRISM 8. […]
(§12) the slope (min-1) was multiplied by -2.3 and by 60 (min h-1) to obtain a first order depletion rate […]
(§13) Extrapolation of kdep to whole body rate biotransformation rate constant (kB-S9) The basic approach to extrapolate first order depletion rate constants (k dep) to whole body

[5] = RT-S9 substrate depletion assay, individual compounds, with IVIVE; conditions: tested individually
Protocol: as §1, with “The in vitro intrinsic clearance by the S9 fraction of rainbow trout liver was measured for the same 11 anionic surfactants used in the BCF experiment as separate compounds. […] An” for “An”
as §2, §3, §4, §5, §6, §7, §8, §9, §10, §11, §12, §13

[6] = set-up: method as in REACH dossier; conditions: experimental, several studies; ref REACH dossier; cited from earlier work
several species = test system: several species; set-up: method as in doi:10.1186/s12302-020-00435-1; conditions: LSC of radiolabeled compound, upper boundary; cited from earlier work
Cyprinus carpio = conditions: in vivo; cited from earlier work

Row | SMILES | Degradation information ~28d-sludge test (% degradable) [1] | LogKow [2] | further results
1 | CCCCCCC(O)CCCCCCCCCCC(=O)[O-].CCCCCCCCCCCCCCCCCC(=O)[O-].[Li+].[Li+] (stereo not shown) [dilithium(1+) ion 12-hydroxyoctadecanoate octadecanoate] | 74-97% |  | 
2 | CCCCCCCCC(=O)O [nonanoic acid] | 68 -75% | 3.42 | 
3 | CCCCCCCCCCCCCCCCCCOP(=O)([O-])[O-].[K+].[K+] [1-Octadecanol, phosphate, potassium salt] | 0% | 8.556 | 
4 | CCCCCCCCCCCC(=O)O [C11CO2] |  |  | BCF (Danio rerio): 255 L/kg; Exp BCF (Danio rerio): 255
5 | CCCCCCCC(C=O)NCCCCCC(=O)O (stereo not shown) [6-[(1-formyloctyl)amino]hexanoic acid] | 98% | 2.47 | 
6 | CCCCC(CC)COP(=O)(O)O (stereo not shown) [[(2-ethylhexyl)oxy]phosphonic acid] | 26-78% | < 3 | 
7 | CC(C)CP(=S)([S-])CC(C)C.[Na+] [sodium diisobutylphosphinodithioate] | 78,8% | -1.64 | 
8 | CCCCC(CC)COC(=O)CC(C(=O)OCC(CC)CCCC)S(=O)(=O)[O-].[K+] (stereo not shown) [potassium 1,4-bis[(2-ethylhexyl)oxy]-1,4-dioxobutane-2-sulfonate] | 83.5-100% | 2.0 | 
9 | CCCCCCCCCCCCOP(=O)([O-])O.[K+] [potassium dodecyl hydrogen phosphate] | 4-63% | 2.74 | 
10 | CC(CC(=O)O)CC(C)(C)C (stereo not shown) [3,5,5-trimethylhexanoic acid] | 96% |  | BCF (carp): 1 to 7 L/kg
11 | CCCCCCCCCC(C)c1ccc(S(=O)(=O)O)cc1 (stereo not shown) [C11-2-LAS, reference compound] |  |  | BCF (rainbow trout): 6 L kg^–1
12 | CCCCC(CC)COP(=O)(O)OCC(CC)CCCC (stereo not shown) [BEHP, bis(2-ethylhexyl)phosphate] |  |  | log DMW, membrane-water distribution ratio [3]: 3.81; Slope of depletion curve (log concentration vs time) [4]: -0.0003 min-1; CLint,S9 [5]: n.s.; Slope of depletion curve (log concentration vs time) ([5]; 2 mg/mL S9 protein, 11 °C): -0.0001 min-1
13 | CCCCCCCCCCCCOS(=O)(=O)[O-].[Na+] [C12SO4, sodium dodecylsulfate] | 94-97% |  | BCF [6]: 1-10; BCF (several species): 1–7.15 L kg^–1
14 | CCCCCCCCCCCCCCOS(=O)(=O)O [C14SO4] |  |  | BCF (Cyprinus carpio): 11 L kg^–1
15 | CCCCCCCCP(=O)(O)O [octylphosphonic acid] | 65-88% | 2.7 | 
16 | CCCCCCC(O)CCCCCCCCCCC(=O)[O-].[Li+] (stereo not shown) [lithium(1+) ion 12-hydroxyoctadecanoate] | 74-97% |  | 
